Laboratory results as given in EP0286418A1, “Anti-retroviral agents and delivery systems for the same” (priority 1987, dated 1988).
Several values for one entry are separate records, joined by “and”; a condition that tells them apart may be missing. Equal values may be shown once. One block for each compound: values may come before it.

Experiments:
monocytes = assay: superoxide generation by monocytes; type: cell-based, Human; conditions: PMA treatment (positive control), one value per test series
Procedure: Human peripheral blood mononuclear cells were obtained by standard procedures employing continuous flow cell separation (leukapheresis), such as described in Wahl, et al., Cellular Immunol. 85:373-383 (1984). The preparation was diluted in phosphate-buffered saline and layered onto gradients of Ficoll-Paque (Pharmacia-PL Biochemicals, Piscataway, N.J., USA). After centrifugation, mononuclear cells were pipetted from the interface, washed, and suspended in DMEM-GG-FCS. They were then fractionated by countercurrent centrifugal elutriation. The procedure comprises the Beckman elutriation system including a J-21 Beckman Centrifuge, a JE-6 elutriator rotor, a stroboscope, and a Masterflex pump and pumphead. The cells were loaded into the rotor and fractionated by elution at increasing flow rates. Fractions 7 and 8, highly enriched for monocytes, were pooled for use.

[1] = volume of encapsulation in liposomes; type: physicochemical; conditions: freeze-thawed multilamellar EPC/PS/cholesterol liposomes; 8 mM solute
Procedure: 2ʹ,3ʹ-dideoxyguanosine 5ʹ-triphosphate (ddGTP), 2ʹ,3ʹ-dideoxyadenosine 5ʹ-triphosphate (ddATP), 2ʹ,3ʹ-dideoxythymidine 5ʹ-triphosphate (ddTTP), 2ʹ,3ʹ-dideoxycytidine 5ʹ-diphosphate (ddCDP), and 2ʹ,3ʹ-dideoxy cytidine 5ʹ-monophosphate (ddCMP) were obtained from Pharmacia (Piscataway, N.J., USA). Liposomes containing each of these agents were prepared using 56 mg EPC, 29 mg PS, 33 mg cholesterol, and 0.125 micro Ci ¹⁴C-cholesteryl oleate. Solutions for encapsulation were 8 mM nucleoside or nucleotide in phosphate-buffered saline pH 7. Liposomes were prepared essentially as described in Example 2, by drying lipid onto the walls of a glass vial, hydrating the lipid with a portion of the solution to be encapsulated, vortex-mixing, and freeze-thawing 5 times with liquid nitrogen. However, the lipid was hydrated in 0.8 ml, rather than 1.0 ml, and the extrusion step was eliminated. […] The preparation was washed by centrifugation 3 times to remove unencapsulated solute. The volume encapsulated was determined by extraction, using equal volumes of chloroform:methanol (65:25) and phosphate buffered saline. The nucleoside and nucleotide solutes partitioned largely into the aqueous phase, whereas lipid was found in the organic phase and near the interface after centrifugation. The amount of solute encapsulated was determined by standard ultraviolet spectroscopy, and the lipid was measured by counting the ¹⁴C label in scintillation fluid.

[2] = solute release from liposomes at 4°C; type: physicochemical; conditions: from liposomes at 4°C in 2 days
Procedure: Rates of solute release were determined by adding 145 microliters of phosphate buffered saline to 25 microliters of liposomes and centrifuging in an Airfuge (Beckman) at approximately 100,000G for 10 minutes. The liposome pellets were then counted for ¹⁴C lipid, and 100 microliters of each supernatant was diluted 5-fold with phosphate buffered saline for ultraviolet spectroscopy. […] In each case, the triphosphates are released less, and the less phosphorylated forms are released to a greater extent.

adherent human monocytes = assay: uptake of dideoxynucleotides; type: cell-based; conditions: 37°C, drug 1 uM
Procedure: Uptake of ₃H-deoxyctidine triphosphate (³H-dCTP) was used as an indicator of the uptake of vesicle contents by cells. Uptake experiments were done by plating 5 × 10⁶ monocytes in each well of a 6-well microtiter plate (Costar) and adding reagents one or two days later. Incubations were done in DMEM-GG-FCS at 37°C. The rate of increase of dCTP content in the cells over a 9-hour period (Table 7) averaged 0.29 pmole/million cells/hr with liposomes containing 4 mM EPC. Other experiments established that ddCTP and ddCMP are not readily taken up by the cells (Table 9).

in vitro = in vitro ADME; conditions: dmem-gg-fcs
Procedure: When the same incubations were done in the absence of monocytes, the results were essentially identical.
Studies were conducted under conditions mimicking those of anti-viral tests. ddCMP: dideoxycytidine monophosphate. Data points represent integrals under HPLC peaks from gradient elution on a VYDAC nucleotide column.

SMILES: CCCCCCCCCCCCCC(=O)O[C@@H]1[C@@H](C)[C@@]2(O)[C@@H](C=C(CO)C[C@]3(O)C(=O)C(C)=C[C@@H]23)[C@@H]2C(C)(C)[C@]12OC(C)=O [PMA, phorbol myristyl acetate, reference compound]
Superoxide (monocytes): 3.23 (.09) nmoles/well and 3.30 (.12) nmoles/well and 3.26 (.05) nmoles/well and 3.46 (.12) nmoles/well

SMILES: Nc1ncnc2c1ncn2[C@H]1CC[C@@H](COP(=O)(O)OP(=O)(O)OP(=O)(O)O)O1 [ddATP, 2ʹ,3ʹ-dideoxyadenosine 5ʹ-triphosphate]
Volume of Encapsulation [1]: 1.30 microliters/micromole EPC | Percent Release [2]: 0.9%

SMILES: Nc1ccn([C@H]2CC[C@@H](COP(=O)(O)O)O2)c(=O)n1 [ddCMP, 2ʹ,3ʹ-dideoxycytidine 5ʹ-monophosphate]
Volume of Encapsulation [1]: 0.76 microliters/micromole EPC | Percent Release [2]: 6.9% | metabolised at 72 h (in vitro): 93% | pmole drug/1 million cells (mean) (adherent human monocytes; 0. h): 0.07 pmole drug/1 million cells | pmole drug/1 million cells (mean) (adherent human monocytes; 0.33 h): 0.18 pmole drug/1 million cells | pmole drug/1 million cells (mean) (adherent human monocytes; 1.00 h): 0.22 pmole drug/1 million cells | pmole drug/1 million cells (mean) (adherent human monocytes; 3.00 h): 0.08 pmole drug/1 million cells | pmole drug/1 million cells (mean) (adherent human monocytes; 6.00 h): 0.20 pmole drug/1 million cells

SMILES: Cc1cn([C@H]2CC[C@@H](COP(=O)(O)OP(=O)(O)OP(=O)(O)O)O2)c(=O)[nH]c1=O [ddTTP, 2ʹ,3ʹ-dideoxythymidine 5ʹ-triphosphate]
Volume of Encapsulation [1]: 1.61 microliters/micromole EPC | Percent Release [2]: 0.04%

Continued, values first:

pmole drug/1 million cells (mean) (adherent human monocytes; 0. h): 0.05 pmole drug/1 million cells | pmole drug/1 million cells (mean) (adherent human monocytes; 0.33 h): 0.01 pmole drug/1 million cells | pmole drug/1 million cells (mean) (adherent human monocytes; 1.00 h): 0.19 pmole drug/1 million cells | pmole drug/1 million cells (mean) (adherent human monocytes; 3.00 h): 0.43 pmole drug/1 million cells | pmole drug/1 million cells (mean) (adherent human monocytes; 6.00 h): 1.30 pmole drug/1 million cells | pmole drug/1 million cells (mean) (adherent human monocytes; 9.00 h): 1.90 pmole drug/1 million cells | pmole drug/1 million cells (mean) (adherent human monocytes; 20.00 h): 0.81 pmole drug/1 million cells
SMILES: Nc1ccn([C@H]2CC[C@@H](CO)O2)c(=O)n1 [ddC, dideoxycytidine, reference compound]

Volume of Encapsulation [1]: 1.26 microliters/micromole EPC | Percent Release [2]: 6.2%
SMILES: Nc1ccn([C@H]2CC[C@@H](COP(=O)(O)OP(=O)(O)O)O2)c(=O)n1 [ddCDP, 2ʹ,3ʹ-dideoxycytidine 5ʹ-diphosphate]

Volume of Encapsulation [1]: 2.74 microliters/micromole EPC | Percent Release [2]: 0.3%
SMILES: Nc1nc2c(ncn2[C@H]2CC[C@@H](COP(=O)(O)OP(=O)(O)OP(=O)(O)O)O2)c(=O)[nH]1 [ddGTP, 2ʹ,3ʹ-dideoxyguanosine 5ʹ-triphosphate]

Volume of Encapsulation [1]: 1.29 microliters/micromole EPC | Percent Release [2]: 45.1%
SMILES: Cc1cn([C@H]2CC[C@@H](CO)O2)c(=O)[nH]c1=O [ddT, dideoxythymidine, reference compound]
